Test results: US20160030499A1, “Adaptogenic Compositions And Method For Production Thereof” (Rubikon Ltd., priority 2014, published 2016)

Assay: Storage stability of quantitated schisandrin (HPLC)
Assay type: physicochemical
Text: A high performance liquid chromatography (HPLC) method was developed to quantitate the schisandrin compound contained in the Schisandra chinensis extract. Schisandrin (≧98%) obtained from Sigma-Aldrich was used as a control. The content of the schisandrin compound in the Schisandra chinensis seed oil extracts ranged from about 4.2 to 4.9% depending on the extraction for example, prior to standardization.
A High-performance liquid chromatography method has been developed to quantify the schisandrin in the extract:
Chromatographic Conditions: • Column: Agilent Zorbax Eclipse XDB-C 18, 150 mm length and 4.6 mm internal diameter filled with octadecylsilyl silica gel, 5 micron particle size; • Flow rate: 1 ml/min; • Detection at wavelength: 250 nm; • Volume of injection sample: 10 μl; • Column temperature: 25° C.

COc1cc2c(c(OC)c1OC)-c1c(cc(OC)c(OC)c1OC)C[C@](C)(O)[C@@H](C)C2 [schisandrin compound, schisandrin]
Storage stability of quantitated amount of schisandrin (12 months, 30 degrees Celsius and 65% relative humidity): stable and unchanged | Storage stability of quantitated amount of schisandrin (24 months, 25 degrees Celsius and 60% relative humidity): stable and unchanged | Storage stability in other studies using the formulation tested in Example 1 (conditions not stated): stable for at least or about one year | Storage stability of quantitated amount of schisandrin (six months, 40 degrees Celsius and 75% relative humidity): stable and unchanged
